Experimental data: ChEMBL document CHEMBL2074287, “Modulation of digoxin transport across Caco-2 cell monolayers by citrus fruit juices: lime, lemon, grapefruit, and pummelo” (Pharm Res, 2003)

Biological target: ATP-dependent translocase ABCB1 (Homo sapiens, UniProt P08183)
Assay: TP_TRANSPORTER: transepithelial transport of digoxin (Digoxin: 30nM) in Caco-2 cells
Format: functional, cell-based

Chain of ATP-dependent translocase ABCB1 (P08183 whole entry): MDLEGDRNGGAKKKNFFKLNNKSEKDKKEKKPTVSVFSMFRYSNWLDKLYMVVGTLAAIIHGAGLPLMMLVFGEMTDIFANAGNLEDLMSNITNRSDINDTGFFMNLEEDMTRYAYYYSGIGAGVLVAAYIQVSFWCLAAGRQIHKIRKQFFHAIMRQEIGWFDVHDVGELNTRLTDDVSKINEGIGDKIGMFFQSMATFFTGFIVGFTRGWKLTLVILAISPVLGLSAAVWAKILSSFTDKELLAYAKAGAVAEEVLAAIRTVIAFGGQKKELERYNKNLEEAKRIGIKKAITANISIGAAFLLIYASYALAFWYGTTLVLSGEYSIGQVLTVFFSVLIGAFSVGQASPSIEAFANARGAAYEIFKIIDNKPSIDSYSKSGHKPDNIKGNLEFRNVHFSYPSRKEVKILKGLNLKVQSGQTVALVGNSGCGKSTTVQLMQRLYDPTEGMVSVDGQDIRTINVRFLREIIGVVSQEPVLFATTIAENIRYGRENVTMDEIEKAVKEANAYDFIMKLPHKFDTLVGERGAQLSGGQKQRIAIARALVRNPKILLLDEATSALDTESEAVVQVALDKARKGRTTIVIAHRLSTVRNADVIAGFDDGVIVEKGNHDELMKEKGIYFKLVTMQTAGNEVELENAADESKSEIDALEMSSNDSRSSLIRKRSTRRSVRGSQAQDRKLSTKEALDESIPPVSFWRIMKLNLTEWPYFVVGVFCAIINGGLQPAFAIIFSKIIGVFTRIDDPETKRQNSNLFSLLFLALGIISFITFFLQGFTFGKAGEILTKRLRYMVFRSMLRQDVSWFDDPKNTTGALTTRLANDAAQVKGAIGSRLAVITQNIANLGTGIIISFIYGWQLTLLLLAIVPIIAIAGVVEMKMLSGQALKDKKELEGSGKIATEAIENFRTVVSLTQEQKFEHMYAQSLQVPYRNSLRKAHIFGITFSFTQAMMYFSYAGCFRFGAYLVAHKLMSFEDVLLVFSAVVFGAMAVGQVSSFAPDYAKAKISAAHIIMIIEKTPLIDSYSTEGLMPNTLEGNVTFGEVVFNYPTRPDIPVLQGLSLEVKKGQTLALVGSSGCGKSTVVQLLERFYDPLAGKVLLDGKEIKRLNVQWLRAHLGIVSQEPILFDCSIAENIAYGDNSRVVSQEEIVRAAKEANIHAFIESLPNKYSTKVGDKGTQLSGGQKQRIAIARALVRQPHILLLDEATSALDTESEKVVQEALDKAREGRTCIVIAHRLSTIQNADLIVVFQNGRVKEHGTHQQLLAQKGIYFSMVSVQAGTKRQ

| Substance | Activity |
| --- | --- |
| PUMMELO JUICE | inhibitor [+] |
| GRAPEFRUIT JUICE | inhibitor [+] |
